{"source": "patent US8835134B2", "about": "“Cycloastragenol monoglucoside, preparation, pharmaceutical composition and application thereof” (Tianjin Institute of Pharmaceutical Research, priority 2007, dated 2014)", "system": "anesthetized open-chest dogs", "assay": "Hemodynamics of anesthetized open-chest dogs, intravenous infusion", "type": "in vivo, mongrel dogs", "settings": "0.15 mg/kg iv", "method": "The animals were anesthetized by intravenous injection of 30 mg/kg sodium pentobarbital, tracheally intubated, and mechanically ventilated with positive air pressure. Left thoracotomy was performed through the fourth intercostal space and the heart was suspended in a pericardial cradle, the aortic root was isolated and a probe of blood flow meter (12 or 14 mm in diameter) was fixed to measure the aortic blood flow as a representation of cardiac output (CO), the circumflex branch of left coronary artery was isolated and a probe of blood flow meter (2 or 2.5 mm in diameter) was fixed to measure the coronary blood flow (CBF). A polyethylene catheter filled with heparin physiological saline was inserted through cardiac apex into the left ventricle to measure the left ventricular pressure (LVP) and left ventricular end-diastolic pressure (LVEDP), Peak positive and peak negative first derivatives of the LVP (+ LVdp/dt and − LVdp/dt) were calculated with the Acknowledge software. The systolic blood pressure (SBP), diastolic blood pressure (DBP) and mean arterial pressure (MAP) were measured by polyethylene catheter via the femoral artery, ECG □ was measured by a AC-601G ECG amplifier. The above-mentioned analog signal was input into a data acquisition workstation (MP100, BIOPAC Systems, USA) to a computer running Acknowledge (version 3.7.1).\nAfter surgery, various indexes before administration were recorded until the indexes were stable, and then intravenous infusion administration was conducted. Thirty dogs were divided into five groups (six dogs in each group), the experiment groups were given 0.15, 0.3, 0.6 mg/kg of ASP-[…] respectively, the normal control group was given 1 ml/kg of solvent, and the positive control group was given 0.3 mg/kg of astragaloside IV. The delivery volumes were 15 ml for each dog was and the delivery velocity was 1 ml/min. The indexes were recorded at 5, 10, 15, 20, 30, 45, 60, 90 and 120 mins after drug administration. At the end of experiment, the hearts were excised and weighted. The myocardial blood flow for per hectogram (CF), coronary resistance (CR), cardiac index (CI), left ventricular work (LVW) and total peripheral resistance (TPR) were calculated according to the following formulae: CF=CBF×[…]/heart weight CR=MAP/CF CI=CO/0.11×(body weight)^2/3 LVW=CO×(MAP−5)×1.052×0.0136 TPR=MAP×79.92/CO\nData are expressed as mean±SD ( x±s), the paired t-test was used to compare the significance between before and after administration, the unpaired t-test was adopted for comparison between groups."}
{"smiles": "CC(C)(O)[C@@H]1CC[C@](C)([C@H]2[C@@H](O)C[C@@]3(C)C4C[C@H](OC5OC(CO)C(O)C(O)C5O)C5C(C)(C)[C@@H](O)CC[C@@]56C[C@@]46CC[C@]23C)O1", "note": "(stereo partly drawn) [CMG, Cycloastragenol-6-O-β-D-glucoside]", "values": [{"measurement": "LVEDP maximum decrease", "value": "1.1±0.4", "unit": "mmHg"}, {"measurement": "CF", "setting": "5 min after administration", "value": "57 ± 21.7", "unit": "ml/min/100 g"}, {"measurement": "CF change vs before administration", "setting": "5 min after administration", "value": "(−0.7 ± 3.6) ml/min/100 g"}, {"measurement": "CI", "setting": "5 min after administration", "value": "2.15 ± 0.65", "unit": "L/min/m^2"}, {"measurement": "CI change vs before administration", "setting": "5 min after administration", "value": "(0.07 ± 0.16) L/min/m^2"}, {"measurement": "CO", "setting": "5 min after administration", "value": "1.24 ± 0.38", "unit": "L/min"}, {"measurement": "CO change vs before administration", "setting": "5 min after administration", "value": "(0.04 ± 0.09) L/min"}, {"measurement": "CR", "setting": "5 min after administration", "value": "1.35 ± 0.42", "unit": "mmHg/ml/min/100 g"}, {"measurement": "CR change vs before administration", "setting": "5 min after administration", "value": "(−0.01 ± 0.08) mmHg/ml/min/100 g"}, {"measurement": "LVEDP", "setting": "5 min after administration", "value": "1.0 ± 2.3", "unit": "mmHg"}, {"measurement": "LVEDP change vs before administration", "setting": "5 min after administration", "value": "(−0.78 ± 0.61) mmHg"}, {"measurement": "LVP", "setting": "5 min after administration", "value": "105 ± 21", "unit": "mmHg"}, {"measurement": "LVP change vs before administration", "setting": "5 min after administration", "value": "(0.1 ± 3.4) mmHg"}, {"measurement": "LVW", "setting": "5 min after administration", "value": "1.15 ± 0.43", "unit": "kg · m"}, {"measurement": "LVW change vs before administration", "setting": "5 min after administration", "value": "(0.03 ± 0.17) kg · m"}, {"measurement": "TPR", "setting": "5 min after administration", "value": "4967 ± 2135", "unit": "dyn · s/cm^5"}, {"measurement": "TPR change vs before administration", "setting": "5 min after administration", "value": "(−183 ± 313) dyn · s/cm^5"}, {"measurement": "dp/dt", "setting": "5 min after administration", "value": "1205 ± 417", "unit": "mmHg/s"}, {"measurement": "dp/dt change vs before administration", "setting": "5 min after administration", "value": "(56 ± 94) mmHg/s"}, {"measurement": "−dp/dt", "setting": "5 min after administration", "value": "−865 ± 286", "unit": "mmHg/s"}, {"measurement": "−dp/dt change vs before administration", "setting": "5 min after administration", "value": "(22 ± 65) mmHg/s"}, {"measurement": "CF", "setting": "10 min after administration", "value": "55.9 ± 21.6", "unit": "ml/min/100 g"}, {"measurement": "CF change vs before administration", "setting": "10 min after administration", "value": "(−1.8 ± 5.0) ml/min/100 g"}, {"measurement": "CI", "setting": "10 min after administration", "value": "2.26 ± 0.55", "unit": "L/min/m^2"}, {"measurement": "CI change vs before administration", "setting": "10 min after administration", "value": "(0.18 ± 0.20) L/min/m^2"}, {"measurement": "CO", "setting": "10 min after administration", "value": "1.31 ± 0.32", "unit": "L/min"}, {"measurement": "CO change vs before administration", "setting": "10 min after administration", "value": "(0.10 ± 0.12) L/min"}, {"measurement": "CR", "setting": "10 min after administration", "value": "1.36 ± 0.42", "unit": "mmHg/ml/min/100 g"}, {"measurement": "CR change vs before administration", "setting": "10 min after administration", "value": "(0.00 ± 0.11) mmHg/ml/min/100 g"}, {"measurement": "LVEDP", "setting": "10 min after administration", "value": "1.0 ± 2.3", "unit": "mmHg"}, {"measurement": "LVEDP change vs before administration", "setting": "10 min after administration", "value": "(−0.73 ± 0.49) mmHg"}, {"measurement": "LVP", "setting": "10 min after administration", "value": "103 ± 22", "unit": "mmHg"}, {"measurement": "LVP change vs before administration", "setting": "10 min after administration", "value": "(−1.5 ± 3.7) mmHg"}, {"measurement": "LVW", "setting": "10 min after administration", "value": "1.18 ± 0.34", "unit": "kg · m"}, {"measurement": "LVW change vs before administration", "setting": "10 min after administration", "value": "(0.06 ± 0.19) kg · m"}, {"measurement": "TPR", "setting": "10 min after administration", "value": "4568 ± 1871", "unit": "dyn · s/cm^5"}, {"measurement": "TPR change vs before administration", "setting": "10 min after administration", "value": "(−582 ± 652) dyn · s/cm^5"}, {"measurement": "dp/dt", "setting": "10 min after administration", "value": "1173 ± 407", "unit": "mmHg/s"}, {"measurement": "dp/dt change vs before administration", "setting": "10 min after administration", "value": "(23 ± 110) mmHg/s"}, {"measurement": "−dp/dt", "setting": "10 min after administration", "value": "−883 ± 288", "unit": "mmHg/s"}, {"measurement": "−dp/dt change vs before administration", "setting": "10 min after administration", "value": "(5 ± 36) mmHg/s"}, {"measurement": "CF", "setting": "15 min after administration", "value": "55.9 ± 22.2", "unit": "ml/min/100 g"}, {"measurement": "CF change vs before administration", "setting": "15 min after administration", "value": "(−1.8 ± 5.8) ml/min/100 g"}, {"measurement": "CI", "setting": "15 min after administration", "value": "2.09 ± 0.45", "unit": "L/min/m^2"}, {"measurement": "CI change vs before administration", "setting": "15 min after administration", "value": "(0.01 ± 0.24) L/min/m^2"}, {"measurement": "CO", "setting": "15 min after administration", "value": "1.21 ± 0.26", "unit": "L/min"}, {"measurement": "CO change vs before administration", "setting": "15 min after administration", "value": "(0.00 ± 0.15) L/min"}, {"measurement": "CR", "setting": "15 min after administration", "value": "1.32 ± 0.38", "unit": "mmHg/ml/min/100 g"}, {"measurement": "CR change vs before administration", "setting": "15 min after administration", "value": "(−0.03 ± 0.14) mmHg/ml/min/100 g"}, {"measurement": "LVEDP", "setting": "15 min after administration", "value": "1.0 ± 2.3", "unit": "mmHg"}, {"measurement": "LVEDP change vs before administration", "setting": "15 min after administration", "value": "(−0.73 ± 0.60) mmHg"}, {"measurement": "LVP", "setting": "15 min after administration", "value": "103 ± 25", "unit": "mmHg"}, {"measurement": "LVP change vs before administration", "setting": "15 min after administration", "value": "(−2.0 ± 4.7) mmHg"}, {"measurement": "LVW", "setting": "15 min after administration", "value": "1.08 ± 0.31", "unit": "kg · m"}, {"measurement": "LVW change vs before administration", "setting": "15 min after administration", "value": "(−0.04 ± 0.19) kg · m"}, {"measurement": "TPR", "setting": "15 min after administration", "value": "4612 ± 1333", "unit": "dyn · s/cm^5"}, {"measurement": "TPR change vs before administration", "setting": "15 min after administration", "value": "(−538 ± 1075) dyn · s/cm^5"}, {"measurement": "dp/dt", "setting": "15 min after administration", "value": "1170 ± 449", "unit": "mmHg/s"}, {"measurement": "dp/dt change vs before administration", "setting": "15 min after administration", "value": "(20 ± 113) mmHg/s"}, {"measurement": "−dp/dt", "setting": "15 min after administration", "value": "−875 ± 288", "unit": "mmHg/s"}, {"measurement": "−dp/dt change vs before administration", "setting": "15 min after administration", "value": "(13 ± 49) mmHg/s"}, {"measurement": "CF", "setting": "20 min after administration", "value": "54.3 ± 20.4", "unit": "ml/min/100 g"}, {"measurement": "CF change vs before administration", "setting": "20 min after administration", "value": "(−3.4 ± 4.4) ml/min/100 g"}, {"measurement": "CI", "setting": "20 min after administration", "value": "2.05 ± 0.45", "unit": "L/min/m^2"}, {"measurement": "CI change vs before administration", "setting": "20 min after administration", "value": "(−0.03 ± 0.26) L/min/m^2"}, {"measurement": "CO", "setting": "20 min after administration", "value": "1.19 ± 0.27", "unit": "L/min"}, {"measurement": "CO change vs before administration", "setting": "20 min after administration", "value": "(−0.02 ± 0.15) L/min"}, {"measurement": "CR", "setting": "20 min after administration", "value": "1.35 ± 0.39", "unit": "mmHg/ml/min/100 g"}, {"measurement": "CR change vs before administration", "setting": "20 min after administration", "value": "(0.00 ± 0.13) mmHg/ml/min/100 g"}, {"measurement": "LVEDP", "setting": "20 min after administration", "value": "1.2 ± 2.4", "unit": "mmHg"}, {"measurement": "LVEDP change vs before administration", "setting": "20 min after administration", "value": "(−0.62 ± 0.47) mmHg"}, {"measurement": "LVP", "setting": "20 min after administration", "value": "101 ± 21", "unit": "mmHg"}, {"measurement": "LVP change vs before administration", "setting": "20 min after administration", "value": "(−3.8 ± 5.1) mmHg"}]}
